The values below come from patent US5753483A (priority 1995, dated 1998).

Entries after “also recorded” stand apart in the source; their conditions may differ. Like-named read-outs stand apart in the source and are kept apart here.

As a reminder, the Vmax is the top rate of the reaction or transport when substrate is in excess. What is called Km is the substrate concentration at which the rate is half of its maximum. By inhibition is commonly meant how much of the control response was suppressed.

Assay [1] deals with T1, UDP-GlcNAc pyrophosphorylase (Sus scrofa, UniProt F1S210).
T1 construct: both 64 and 55 kDa bands photolabelled
Nature of the assay: Photoaffinity labeling of purified pyrophosphorylase and its inhibition (FIG. 5). The assay is classed as binding, pig. As to the method:
Enzyme was incubated with radioactive probe in the presence or absence of various inhibitors, and some of the incubations were exposed to UV light to activate the probe. Each incubation was treated with trichloroacetic acid to precipitate the protein, and the pellet was resuspended in SDS and subjected to SDS-PAGE. Radioactive proteins were detected by exposure to film. […]

Assay [2] concerns the target T2, Pyrophosphorylase (Sus scrofa, UniProt F1S210).
T2 construct: 64 and 55 kDa bands; native about 125 kDa
Briefly: Specificity of pyrophosphorylase (forward direction). The assay is classed as biochemical, pig. The conditions noted are these: for Activity / Relative Activity: sugar phosphate 5 mM, UT = 5 mM; for Relative Activity: GalNAc-1-P = 100. Here is the method:
(§1) After an incubation of 10 minutes at 37° C., the reaction was terminated by heating the tubes in a boiling water bath for 30 seconds. The amount of product could either be determined by measuring the amount of radioactivity that bound to DE-52 (HCO3 -) after treatment of the reaction mixtures with alkaline phosphatase, or the product could be detected by TLC.
(§2) The substrate specificity of the purified enzyme was examined in both the forward and the reverse direction.

Assay [3] deals with UDP-GlcNAc pyrophosphorylase. Briefly: Kinetic constants, forward direction (sugar-1-P + UTP). The assay is classed as biochemical, pig. Here is the method: as §1
In assay [4] the target is T2, Pyrophosphorylase. Briefly: Putative inhibitors of pyrophosphorylase. The assay is classed as biochemical, pig. The following applies: for inhibition at 100 µM: 0.1 mM; for inhibition at 1000 µM: 1.0 mM. As to the method:
A variety of other inhibitors were tested, including various sulfhydryl reagents and metal chelators.

Assay [5] concerns the target T2, Pyrophosphorylase. Nature of the assay: Specificity of pyrophosphorylase (reverse direction). The assay is classed as biochemical, pig. The following applies: 5 mM, PP = 1 mM; for Relative Activity: UDP-GalNAc = 100. Here is the method:
(§3) When measured in the reverse direction, either a direct assay or an indirect assay could be used. […] The incubation mixtures contained the following components in a final volume of 50 μl: 5 mM sodium pyrophosphate, 250 uM UDP-[^3 H]GlcNAc (2.2 Ci/mmol), 100 mM Tris HCl buffer, pH 8.5, 2 mM MgCl2, and various amounts of enzyme at the different stages of purification. […] The suspension was vortexed vigorously for 2 minutes, and was then centrifuged in a microfuge. The supernatant liquid was removed and saved, and the charcoal was washed with 1 ml of water. The supernatant liquid from this wash was combined with the first supernatant liquid, and an aliquot was removed and counted, as a measure of the formation of GlcNAc-1-P.
(§4) For the indirect assay, a modification of the spectrophotometric method of Munch-Petersen, (1956) Acta Chim. Scand. […] The assay mixtures contained 50 mM Tris-HCl buffer, pH 7.5, 1 mM MgCl2, 0.5 mM ADP, 1 mM glucose, 0.5 mM NADP, 1 mM inorganic pyrophosphate, 2 mM UDP-HexNAc and 2.5 units each of nucleoside diphosphate kinase, hexokinase and glucose-6-P dehydrogenase.
as §2

The test system of assay [6] is UDP-GlcNAc pyrophosphorylase. The following applies: reverse direction. As to the method:
as §3, §4

Another assay concerns sheep brain enzyme. The conditions noted are these: cited from earlier work.
For assay [7], the system named is UDP-GlcNAc pyrophosphorylase. The conditions noted are these: [^3 H]UTP + GlcNAc-1-P, 2 hours.
Protocol: The reaction products, formed in either the forward direction (i.e., uridine diphosphate sugars), or in the reverse direction (i.e., UTP and sugar-i-P's), were isolated by chromatography on a 1×20
column of DEAE-cellulose (HCO3 -), equilibrated in 10 mM NH4 HCO3. After application of the sample, the column was washed with the same solution and the retained products were eluted with 200 ml of a linear 10 to 300 mM gradient of NH4 HCO3. Fractions were analyzed for nucleotides by measuring the absorption at 260 nm, for radioactivity by scintillation counting, and for hexosamine by the Reissig test (J. Biol. Chem., 217, 959-966, 1955) or the or the Elson Morgan assay (Wheat, R. W. (1966) Meth. Enzymol. 8, 60-78). Peak fractions were pooled and concentrated on a rotary evaporator and NH4 H CO3 was removed by evaporation in the presence of triethylamine. The triethylamine was in turn removed by evaporation in the presence of methanol.
The reaction products were identified by chromatography, either directly, or following various treatments such as digestion with phosphodiesterase or alkaline phosphatase, or acid hydrolysis. Nucleotides were identified by TLC in the following systems: PEI plates developed in 0.2M and 0.4M solutions of LiCl; cellulose plates in ethanol: 1M ammonium acetate, pH 7.3 (7:3), or silica gel plates in ethanol: 1M ammonium acetate, pH 5.0 (7:3). […]
Assay [8] has as its system UDP-GlcNAc pyrophosphorylase from brain. The following applies: cited from earlier work.
In assay [9] the target is T2, Pyrophosphorylase. Nature of the assay: Effects of metal ions on pyrophosphorylase activity. It is filed as biochemical, pig. The conditions noted are these: metal ion 1 mM. The text has this:
Other ions such as Fe^+++, Ca^++ and Hg^++ were ineffective.

Where [10] appears, read: at 1 mM UTP, read-out: apparant Km.
Setting [11] is: metal chelators, as long as sufficient Mn++ was added.
Where [12] appears, read: at 1 mM inorganic pyrophosphate.

T1 sequence (F1S210 1-505): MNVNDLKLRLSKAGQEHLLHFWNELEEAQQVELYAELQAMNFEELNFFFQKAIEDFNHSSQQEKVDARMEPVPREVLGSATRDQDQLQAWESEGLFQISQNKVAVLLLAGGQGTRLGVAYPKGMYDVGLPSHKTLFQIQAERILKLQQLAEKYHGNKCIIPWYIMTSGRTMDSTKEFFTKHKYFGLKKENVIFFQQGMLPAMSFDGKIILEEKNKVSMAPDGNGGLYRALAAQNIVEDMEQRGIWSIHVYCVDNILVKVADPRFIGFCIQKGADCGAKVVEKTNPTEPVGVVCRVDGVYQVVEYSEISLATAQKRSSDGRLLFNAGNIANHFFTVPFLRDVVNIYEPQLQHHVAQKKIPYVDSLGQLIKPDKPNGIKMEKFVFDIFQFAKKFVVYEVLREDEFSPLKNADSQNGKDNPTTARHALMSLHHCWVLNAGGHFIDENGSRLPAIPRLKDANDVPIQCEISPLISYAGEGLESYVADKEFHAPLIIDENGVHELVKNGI
T2 sequence (F1S210 1-505): as above

On to `Nc1nc2c(ncn2[C@@H]2O[C@H](COP(=O)(O)OP(=O)(O)O)[C@@H](O)[C@H]2O)c(=O)[nH]1` [GDP], for which the inhibition of labeling result in assay [1] (nucleotides) is given as “very little inhibition of labeling”.
Consider `O=P(O)(O)O[C@H]1O[C@H](CO)[C@@H](O)[C@H](O)[C@H]1O` [Glc-1-P, glucose-1-P], for which, at Pyrophosphorylase [2], the “substrate preference, forward direction” value was “may act as substrates but to a much lower degree”; the Activity turned out to be 0.20 nmol/min; the “Relative Activity” value worked out at 4%. Moreover, the Vmax in [3] (at 1 mM UTP) came out at 1.7 nmol/min. Further, in assay [3] (setting [10]), the Km came to 66600 µM.
Regarding `O=C(O)CN(CCOCCOCCN(CC(=O)O)CC(=O)O)CC(=O)O` [EGTA], on Pyrophosphorylase [4] (read-out: Inhibition), the inhibition at 100 µM was found to be 8% and the inhibition at 1000 µM was 13%. For the same compound, the “inhibition (in words)” value on Pyrophosphorylase [4] (setting [11]) was “did not inhibit”.
Regarding `Nc1ncnc2c1ncn2[C@@H]1O[C@H](COP(=O)(O)OP(=O)(O)O[C@H]2O[C@H](CO)[C@@H](O)[C@H](O)[C@H]2O)[C@@H](O)[C@H]1O` [ADP-Glc], at Pyrophosphorylase [5], the Activity amounted to 0.6 nmol/min and the “Relative Activity” value stood at 3%.
For `Nc1ncnc2c1ncn2[C@@H]1O[C@H](COP(=O)(O)OP(=O)(O)OP(=O)(O)O)[C@@H](O)[C@H]1O` [ATP], the inhibition of labeling entry in [1] (nucleotides) is “very little inhibition of labeling”.
As to `O=c1ccn([C@@H]2O[C@H](COP(=O)(O)OP(=O)(O)OP(=O)(O)O)[C@@H](O)[C@H]2O)c(=O)[nH]1` [UTP], in assay [3] (UTP as substrate, at 10 mM GlcNAc-1-P), the Vmax was determined as 4.8 nmol/min. Besides, the Km in assay [3] (UTP as substrate, at 10 mM GlcNAc-1-P, read-out: Km) turned out to be 2500 µM. In addition, the inhibition of labeling entry in [1] (nucleotides) is reported as “very little inhibition of labeling”.
For the compound `O=P(O)(O)O` [inorganic phosphate], the “inhibition (in words)” value against Pyrophosphorylase [4] (even at 10 mM) is “nor did inorganic phosphate”.
In the case of `O[C@H](CS)[C@H](O)CS` (racemic) [Dithiothreitol], at Pyrophosphorylase [4] (read-out: Inhibition), the inhibition at 100 µM amounted to 21% and the inhibition at 1000 µM stood at 62%.
In the case of `O=C(O)[C@H]1O[C@H](OP(=O)(O)OP(=O)(O)OC[C@H]2O[C@@H](n3ccc(=O)[nH]c3=O)[C@H](O)[C@@H]2O)[C@H](O)[C@@H](O)[C@@H]1O` [UDP-GlcCOOH, UDP-glucuronic acid], on Pyrophosphorylase [5], the Activity came out at 1.4 nmol/min and the “Relative Activity” value turned out to be 7%. In assay [1] (even at 1 mM), the inhibition of labeling entry is reported as “None of these sugar nucleotides showed any inhibition of the labeling”.
Regarding `NC(=O)CI` [Iodoacetamide], the inhibition at 1000 µM on Pyrophosphorylase [4] amounted to 44%.
As for `O=c1ccn([C@@H]2O[C@H](COP(=O)(O)OP(=O)(O)O[C@H]3OC[C@@H](O)[C@H](O)[C@H]3O)[C@@H](O)[C@H]2O)c(=O)[nH]1` [UDP-xylose], the inhibition of labeling entry in [1] (even at 1 mM) is recorded as “None of these sugar nucleotides showed any inhibition of the labeling”.
For the compound `N[C@H]1[C@@H](OP(=O)(O)O)O[C@H](CO)[C@@H](O)[C@@H]1O` [GlcN-1-P], at Pyrophosphorylase [2], the Activity stood at 0.10 nmol/min and the “Relative Activity” value is 2%.
The compound `N[C@H]1C(OP(=O)(O)O)O[C@H](CO)[C@H](O)[C@@H]1O` (stereo partly drawn) [GalN-1-P] had an Activity on Pyrophosphorylase [2] of 0 nmol/min.
Consider `CCN1C(=O)C=CC1=O` [N-ethylmaleimide], for which at 10 µM the inhibition against Pyrophosphorylase [4] (0.01 mM) was 3%. In addition, on Pyrophosphorylase [4], testing at 100 µM gave an inhibition of 46% and the inhibition at 1000 µM amounted to 72%.
As for `CC(=O)NC1C(OP(=O)(O)OP(=O)(O)OCC2OC(n3ccc(=O)[nH]c3=O)C(O)C2O)OC(CO)C(O)C1O` (stereo not drawn) [UDP-GlcNAc, UDP-N-acetylglucosamine], in assay [6] (setting [12]), the Km is 50 µM and the Vmax was determined as 22.2 nmol/min. Further, the “activity as substrate (in words)” value in the assay with sheep brain enzyme is “most active”. Moreover, at Pyrophosphorylase [5], the Activity is 13.0 nmol/min and the “Relative Activity” value was found to be 66%. In addition, in assay [7], the “amount in UDP-GlcNAc area” value was determined as 7.9 µmol and the “radioactivity in UDP-GlcNAc area, share of total” value was 79%. Also, the inhibition of labeling result in assay [1] (unlabeled UDP-GlcNAc 0.01 mM to 1 mM) was “labeling was efficiently blocked; also recorded: effectively inhibited the labeling of both subunits to about the same extent; also recorded: labeling is blocked”.
Consider `Nc1nc2c(ncn2[C@@H]2O[C@H](COP(=O)(O)OP(=O)(O)OP(=O)(O)O)[C@@H](O)[C@H]2O)c(=O)[nH]1` [GTP], for which the inhibition of labeling result in assay [1] (nucleotides) is given as “very little inhibition of labeling”.
Turning to `O=C(O)[C@H]1O[C@H](OP(=O)(O)OP(=O)(O)OC[C@H]2O[C@@H](n3ccc(=O)[nH]c3=O)[C@H](O)[C@@H]2O)[C@H](O)[C@@H](O)[C@H]1O` [UDP-GalCOOH], at Pyrophosphorylase [5], the Activity turned out to be 1.3 nmol/min and the “Relative Activity” value is 7%.
Consider `O=c1ccn([C@@H]2O[C@H](COP(=O)(O)OP(=O)(O)O)[C@@H](O)[C@H]2O)c(=O)[nH]1` [UDP], for which, in [1] (nucleotides), the inhibition of labeling entry is “very little inhibition of labeling”.
On Pyrophosphorylase [4], `O=C(O)CN(CCN(CC(=O)O)CC(=O)O)CC(=O)O` [EDTA] displayed an inhibition at 100 µM of 5% and an inhibition at 1000 µM of 13%. Further, the “inhibition (in words)” value against Pyrophosphorylase [4] (setting [11]) is “did not inhibit”.
For `O=P(O)(O)O[C@H]1O[C@H](CO)[C@H](O)[C@H](O)[C@H]1O` [Gal-1-P], at Pyrophosphorylase [2], the “substrate preference, forward direction” value is on record as “may act as substrates but to a much lower degree”; the Activity is 0.14 nmol/min; the “Relative Activity” value stood at 3%.
Turning to `O=c1ccn([C@@H]2O[C@H](COP(=O)(O)O)[C@@H](O)[C@H]2O)c(=O)[nH]1` [UMP], the inhibition of labeling entry in [1] (nucleotides) is recorded as “a small effect”.
For `[Mn+2]` [Mn++, manganese], the effectiveness as cation result in assay [8] is “then Mn^++”. The Activity was determined as 4.89 nmol on Pyrophosphorylase [9] and 100% at Pyrophosphorylase [9] (Mn++ = 100).
As to `c1cnc2c(c1)ccc1cccnc12` [O-Phenanthroline, 1, 10-phenanthroline], at Pyrophosphorylase [4] (read-out: Inhibition), the inhibition at 100 µM is 5% and the inhibition at 1000 µM is 16%. The “inhibition (in words)” value against Pyrophosphorylase [4] (setting [11]) is “did not inhibit”.
On to `Nc1nc2c(ncn2[C@@H]2O[C@H](COP(=O)(O)OP(=O)(O)O[C@H]3O[C@H](CO)[C@@H](O)[C@H](O)[C@@H]3O)[C@@H](O)[C@H]2O)c(=O)[nH]1` [GDP-mannose], for which the inhibition of labeling result in assay [1] (even at 1 mM) is recorded as “None of these sugar nucleotides showed any inhibition of the labeling”.
As to `CC(=O)N[C@H]1[C@@H](OP(=O)(O)O)O[C@H](CO)[C@@H](O)[C@@H]1O` [GlcNAc-1-P], on Pyrophosphorylase [2], the Activity was 4.83 nmol/min and the “Relative Activity” value is listed as 91%. Also, the Vmax in assay [3] (at 1 mM UTP) is reported as 3.1 nmol/min. The Km in [3] (setting [10]) worked out at 2000 µM.
As to `O=P(O)(O)OP(=O)(O)O` [inorganic pyrophosphate], in assay [6] (at 1 mM UDP-GlcNAc), the Km stood at 70 µM and the Vmax is given as 20 nmol/min.
With `CC(=O)N[C@H]1[C@@H](OP(=O)(O)O)O[C@H](CO)[C@H](O)[C@@H]1O` [GalNAc-1-P], on Pyrophosphorylase [2], the “substrate preference, forward direction” value is given as “GalNAc-1-P over GlcNAc-1-P; also recorded: prefers GalNAc-1-P slightly over GlcNAc-1-P”; the Activity was determined as 5.28 nmol/min; the “Relative Activity” value was determined as 100%. In addition, the Vmax in assay [3] (at 1 mM UTP) was 7.1 nmol/min. The Km in assay [3] (setting [10]) was 5500 µM.
